Legend:
[1] = test system: influenza A virus (H1N1, A/WSN/33); test: Efficacy on mice, IAV mouse infection model; type: in vivo, BALB/c mice; conditions: 15 mpk orally twice a day; for Body weight change: infected mice, during the experiment; for Mean difference of virus titer compared with the menstruum group: mice, 5th day after virus infection
From the text: Female BALB/c mice were inoculated with influenza A virus (H1N1, A/WSN/33) by intranasal administration to establish an IAV mouse infection model. Menstruum, the compound of formula (1) (15 mpk) or oseltamivir phosphate (15 mpk) were orally administered twice a day. Animal weight and survival status were monitored daily during the test, and on the 5th day, some animals were sacrificed to take lung tissue for virus titer detection, and the remaining mice were used for survival rate monitoring. The in vivo anti-influenza virus efficacy of the test compound was determined by virus titer in lung tissue, mouse body weight change and survival rate.

[2] = Solid state stability of the crystal form (XRPD, HPLC); type: physicochemical
Experimental: The crystal form F samples of the compound of formula (1) were placed at 60° C. for 30 days, at 25° C./92.5% RH for 30 days, and exposed to light for 15 days, respectively. The physical and chemical stability of the samples were tested by XRPD and HPLC.

[3] = Mechanical stability: XRPD before and after jet milling; type: physicochemical; conditions: jet milled to D90≤10 μm
From the text: In addition, 224.90 g of the above compound of the formula (1) was jet milled (feed pressure 0.4 to 0.5 MPa, milling pressure 0.18 to 0.22 MPa) to give 212.00 g sample with a particle size of D90≤10 μm.

[4] = Hygroscopicity by dynamic vapour sorption (DVS); type: physicochemical
Experimental: • Instrument model: Bruker D8 Venture single-crystal diffractometer • Light source: Mo target • X-ray: Mo—K (=0.71073 Å) • Detector: CMOS based detector • Resolution: 0.84 Å • Current and voltage: 50 kV, […] 2. X-Ray Powder Diffraction (XRPD) • Instrument model: PANalytical X'Pert3 Power • X-ray: Cu, Kα, Kα1 (Å): 1.540598; Kα2 (Å): 1.544426 • X-ray tube setting: 45 kV, 40 mA • Divergence slit: 1/8° • Scan pattern: continuous • Scanning range (2θ): 3°-40° • Scan step size (2θ): 0.0263° 3. Differential Scanning Calorimetry (DSC) • Instrument model: TA Q2000/2500 differential scanning calorimeter • Heating rate: 10° C./min • Temperature range: 25° C. to setting end-point temperature • Shielding gas: nitrogen 4. Thermogravimetric Analysis (TGA) • Instrument model: TA Q5000/5500 thermogravimetric analyzer • Heating rate: 10° C./min • Temperature range: room temperature to setting end-point temperature • Shielding gas: nitrogen 5. Dynamic Vapour Sorption (DVS) • Instrument model: SMS DVS Intrinsic vapour sorption analyzer • Temperature: 25° C. • RH range: 0% RH-95% RH • Shielding gas: nitrogen

[5] = Light (white light 4500 Lux, ultraviolet light 90 μw/cm^2)/15 days

| Compound | Body weight change [1] | Mean difference of virus titer compared with the menstruum group [1] | Appearance and character ([2]; 25° C./92.5% RH/30 days) | Crystal form change ([2]; 25° C./92.5% RH/30 days) | Purity (area %) ([2]; 25° C./92.5% RH/30 days) | Purity/initial (%) ([2]; 25° C./92.5% RH/30 days) | Appearance and character ([2]; 60° C./30 days) | Crystal form change ([2]; 60° C./30 days) | Purity (area %) ([2]; 60° C./30 days) | Purity/initial (%) ([2]; 60° C./30 days) | Appearance and character ([2]; Initial) | Crystal form change ([2]; Initial) | Purity (area %) ([2]; Initial) | Appearance and character [2, 5] | Crystal form change [2, 5] | Purity (area %) [2, 5] | Purity/initial (%) [2, 5] | Crystal form before and after milling (XRPD) [3] | Crystal form before and after the DVS test (XRPD) ([4]; DVS at 25° C.) | Moisture-absorption weight gain ([4]; DVS, 25° C./80% RH) |
| --- | --- | --- | --- | --- | --- | --- | --- | --- | --- | --- | --- | --- | --- | --- | --- | --- | --- | --- | --- | --- |
| CCOC(=O)C1=C[C@@H](OC(CC)CC)[C@H](NC(C)=O)[C@@H](N)C1 [Oseltamivir phosphate, oseltamivir phosphate, reference compound] | remained stable during the experiment, had no significant decline | 3.46 Log10 (plaques number/gram of |  |  |  |  |  |  |  |  |  |  |  |  |  |  |  |  |  |  |
| COC(=O)OCOc1c2n(ccc1=O)N([C@@H]1c3ccccc3SCc3c1ccc(F)c3F)[C@@H]1COC3(CC3)CN1C2=O [Compound of formula (1), (((R)-12′-((S)-7,8-difluoro-6,11-dihydrodibenzo[b,e]thiepin-11-yl)-6′,8′-dioxo-6′,8′,12′,12a′-tetrahydro-1′H,4′H-spiro[cyclopropane-1,3′-[1,4]oxazino[3,4-c]pyrido[2,1-f][1,2,4]triazin]-7′-yl)oxy)methyl methyl carbonate] | remained stable during the experiment, had no significant decline | 3.92 Log10 (plaques number/gram of |  |  |  |  |  |  |  |  |  |  |  |  |  |  |  |  |  |  |
| COC(=O)OCOc1c2n(ccc1=O)N([C@@H]1c3ccccc3SCc3c1ccc(F)c3F)[C@@H]1COC3(CC3)CN1C2=O [crystal form F] |  |  | White | No | 99.0 area % | 100.4% | White | No | 98.7 area % | 100.1% | White | No | 98.6 area % | White | No | 98.5 area % | 99.9% | does not change | did not change | 0.10% |

From patent US12583867B2, “Pyridone derivative crystal form and preparation method and application therefor” (priority 2019, dated 2026)
